This note sets out measurements from patent US7452905B2, “Phenylalanine derivatives” (Ajinomoto Co., Inc., priority 2000, dated 2008).

The structures appear in SMILES notation.

The assay addresses T1, integrin α4 β1 (Homo sapiens, UniProt P05556+P13612).
T1 construct: cell strain Jurkat (ATCC TIB-152) of human T cells, known to express integrin α4 β1; endogenous in cells; host or cells: Jurkat (ATCC TIB-152)
In words: VCAM antagonist activity (VCAM-1/α4β1 binding assay), Jurkat cells binding to VCAM-1. Format: cell-based. The settings on record: Jurkat cells binding to recombinant human VCAM-1; 50% binding inhibition; read-out: Antagonistic Activity IC50 α 4 β 1/VCAM. The method, then:
VCAM Antagonist Activity (VCAM-1/α4β1 Binding Assay)
The capacity of a test substance antagonistic to the binding of cell strain Jurkat (ATCC TIB-152) of human T cells, known to express integrin α4 β1, to VCAM-1 was determined. 100 μl/well of a solution (500 ng/ml) of recombinant human VCAM-1 (R & D systems) solution diluted with buffer A (0.1 M NaHCO3, pH 9.6) was added to a micro titer plate having 96 wells (Nunc Maxisorp). After the incubation at 4° C. overnight, unbound VCAM-1 was removed by washing once with PBS. After completion of the washing, a buffer (buffer B) obtained by diluting Block Ace (Dainippon Pharmaceutical Co., Ltd.) with PBS to ¼ concentration was added in an amount of 150 μl/well. After the incubation at room temperature for 1 hour, buffer B was removed and the plate was washed with PBS once.
Jurkat cells were washed with Dulbecco modified Eagle medium (SIGMA, hereinafter referred to as “DMEM”) twice and then incubated in DMEM containing 10 μg/ml of Calcein-AM (Wako Pure Chemical Industries, Ltd.) at 37° C. in dark place for 30 minutes to label with fluorescence. The cells were again suspended in a binding buffer (20 mM HEPES, DMEM containing 0.1% BSA).
50 μl of a test substance of various concentrations obtained by the dilution with the binding buffer was added to the plate. Immediately thereafter, 50 μl (final volume: 100 μl well) of the fluorescent Jurkat cells (4×10^6 cells/ml) were added thereto, and they were incubated at room temperature for 30 minutes. After the shaking on a plate shaker (IKA MTS-4) at 800 rpm for 30 seconds, the solution was immediately removed to remove the unbound cells. The fluorescence quantity of the bound cells remaining in the wells was determined with a fluorescent plate reader (Wallac 1420 ARVO multi-label counter) (filter excitation wave length: 485 nm, emission wave length: 535 nm). The fluorescent strength thus obtained is proportional to the number of Jurkat cells bound to VCAM-1 and remaining on the plate. The binding rate of each test material in various concentrations was determined while the fluorescent strength of the test material-free well was determined to be 100%. The concentration IC50 for the 50% binding inhibition was calculated.

T1 sequence (P13612 34-1032): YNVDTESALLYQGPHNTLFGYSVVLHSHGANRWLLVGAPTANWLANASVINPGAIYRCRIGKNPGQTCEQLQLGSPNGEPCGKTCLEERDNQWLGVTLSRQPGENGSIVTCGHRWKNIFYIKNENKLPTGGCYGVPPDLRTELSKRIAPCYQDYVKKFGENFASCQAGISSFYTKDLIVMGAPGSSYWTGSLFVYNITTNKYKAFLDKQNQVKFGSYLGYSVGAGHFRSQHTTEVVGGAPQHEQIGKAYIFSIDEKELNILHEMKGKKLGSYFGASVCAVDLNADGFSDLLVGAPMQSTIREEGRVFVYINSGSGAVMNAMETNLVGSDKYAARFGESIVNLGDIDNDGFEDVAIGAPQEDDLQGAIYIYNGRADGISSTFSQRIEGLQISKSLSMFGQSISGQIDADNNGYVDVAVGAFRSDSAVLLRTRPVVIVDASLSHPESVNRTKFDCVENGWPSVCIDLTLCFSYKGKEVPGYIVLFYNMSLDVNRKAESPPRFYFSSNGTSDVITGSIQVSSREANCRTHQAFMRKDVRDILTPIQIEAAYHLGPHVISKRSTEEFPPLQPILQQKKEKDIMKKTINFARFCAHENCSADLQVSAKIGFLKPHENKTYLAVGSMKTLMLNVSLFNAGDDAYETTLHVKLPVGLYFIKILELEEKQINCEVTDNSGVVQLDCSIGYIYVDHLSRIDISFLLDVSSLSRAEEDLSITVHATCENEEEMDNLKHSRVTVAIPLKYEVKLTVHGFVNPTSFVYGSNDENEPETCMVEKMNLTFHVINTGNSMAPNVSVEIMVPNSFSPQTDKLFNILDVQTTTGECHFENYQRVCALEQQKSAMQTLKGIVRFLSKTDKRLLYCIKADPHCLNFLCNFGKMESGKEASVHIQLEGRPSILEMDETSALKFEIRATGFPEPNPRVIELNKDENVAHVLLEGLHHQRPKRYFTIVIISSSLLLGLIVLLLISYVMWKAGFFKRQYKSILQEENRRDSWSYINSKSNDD
T1 sequence (P05556 21-798): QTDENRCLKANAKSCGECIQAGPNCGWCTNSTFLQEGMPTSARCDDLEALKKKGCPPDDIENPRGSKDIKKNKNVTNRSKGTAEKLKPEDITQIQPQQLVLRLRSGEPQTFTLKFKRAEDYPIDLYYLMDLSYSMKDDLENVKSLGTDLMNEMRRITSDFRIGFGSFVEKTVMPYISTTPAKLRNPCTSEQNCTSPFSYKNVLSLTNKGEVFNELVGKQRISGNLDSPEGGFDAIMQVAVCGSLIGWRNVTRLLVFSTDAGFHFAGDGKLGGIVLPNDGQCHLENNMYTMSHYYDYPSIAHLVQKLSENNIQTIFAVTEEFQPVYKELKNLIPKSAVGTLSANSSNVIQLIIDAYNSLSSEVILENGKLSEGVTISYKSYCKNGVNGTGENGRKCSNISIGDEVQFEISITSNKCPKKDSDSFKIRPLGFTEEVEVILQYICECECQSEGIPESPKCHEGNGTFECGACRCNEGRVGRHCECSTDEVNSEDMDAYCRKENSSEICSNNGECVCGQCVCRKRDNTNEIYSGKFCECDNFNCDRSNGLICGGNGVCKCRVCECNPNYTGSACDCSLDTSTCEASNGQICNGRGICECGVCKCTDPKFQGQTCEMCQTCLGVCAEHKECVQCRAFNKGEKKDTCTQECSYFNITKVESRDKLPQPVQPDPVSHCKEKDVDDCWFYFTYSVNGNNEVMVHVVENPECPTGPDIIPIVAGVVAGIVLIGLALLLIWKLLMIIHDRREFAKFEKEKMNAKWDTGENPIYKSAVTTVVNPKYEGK

Consider `O=C(N[C@@H](Cc1ccc(N2C(=O)c3ccccc3C2=O)cc1)C(=O)O)c1c(Cl)cccc1Cl` [Example 1], for which the IC50 was 0.21 µM.

For `Cc1ccc2c(c1)C(=O)N(c1ccc(C[C@H](NC(=O)c3c(Cl)cccc3Cl)C(=O)O)cc1)C2=O` [Example 6], the IC50 was 0.24 µM. The same measure for `O=C(N[C@@H](Cc1ccc(N2C(=O)c3ccc([N+](=O)[O-])cc3C2=O)cc1)C(=O)O)c1c(Cl)cccc1Cl` [Example 9]: 0.17 µM. `O=C(N[C@@H](Cc1ccc(N2C(=O)Cc3ccccc3C2=O)cc1)C(=O)O)c1c(Cl)cccc1Cl` [Example 15]: the IC50 is 0.74 µM. For `O=C(N[C@@H](Cc1ccc(N2C(=O)c3cccc4cccc(c34)C2=O)cc1)C(=O)O)c1c(Cl)cccc1Cl` [Example 16], the IC50 turned out to be 1.1 µM. For `O=C(N[C@@H](Cc1ccc(N2Cc3ccccc3C2=O)cc1)C(=O)O)c1c(Cl)cccc1Cl` [Example 17], the IC50 came out at 1.9 µM. For the compound `O=C(N[C@@H](Cc1ccc(N2CC=CC2=O)cc1)C(=O)O)c1c(Cl)cccc1Cl` [Example 25], the IC50 was determined as 5 µM.

Regarding `O=C(N[C@@H](Cc1ccc(N2CC=CCC2=O)cc1)C(=O)O)c1c(Cl)cccc1Cl` [Example 26], the IC50 came to 5.3 µM. Consider `O=C(N[C@@H](Cc1ccc(N2CC=CCCC2=O)cc1)C(=O)O)c1c(Cl)cccc1Cl` [Example 27], for which the IC50 was found to be 2.8 µM.

On to `Cc1ccc(C)c2c1C(=O)N(c1ccc(C[C@H](NC(=O)c3c(Cl)cccc3Cl)C(=O)O)cc1)C2=O` [Example 30], for which the IC50 was 0.45 µM. For the compound `CN(C)C(=O)c1ccc2c(c1)C(=O)N(c1ccc(C[C@H](NC(=O)c3c(Cl)cccc3Cl)C(=O)O)cc1)C2=O` [Example 33], the IC50 was 0.26 µM. With `O=C(N[C@@H](Cc1ccc(N2C(=O)C3=C(CCCC3)C2=O)cc1)C(=O)O)c1c(Cl)cccc1Cl` [Example 37] the figure was 0.14 µM; with `O=C(N[C@@H](Cc1ccc(N2C(=O)C3=C(SCCS3)C2=O)cc1)C(=O)O)c1c(Cl)cccc1Cl` [Example 38], 0.22 µM.

`O=C(N[C@@H](Cc1ccc(N2C(=O)[C@@H]3CCCC[C@H]3C2=O)cc1)C(=O)O)c1c(Cl)cccc1Cl` [Example 40]: the IC50 turned out to be 0.24 µM. The same measure for `O=C(N[C@@H](Cc1ccc(N2C(=O)[C@@H]3[C@H](C2=O)[C@@H]2C=C[C@H]3C2)cc1)C(=O)O)c1c(Cl)cccc1Cl` [Example 42]: 0.56 µM; for `CC1CCC2C(=O)N(c3ccc(C[C@H](NC(=O)c4c(Cl)cccc4Cl)C(=O)O)cc3)C(=O)C2C1` (some centres unmarked) [Example 43]: 1.6 µM. With `O=C(N[C@@H](Cc1ccc(N2C(=O)[C@@H]3[C@H](C2=O)[C@@H]2C=C[C@H]3CC2)cc1)C(=O)O)c1c(Cl)cccc1Cl` [Example 44] the figure was 1.4 µM. With `O=C(N[C@@H](Cc1ccc(N2C(=O)[C@H]3CC=CC[C@H]3C2=O)cc1)C(=O)O)c1c(Cl)cccc1Cl` [Example 45] the figure was 1.2 µM; with `O=C(N[C@@H](Cc1ccc(N2C(=O)C3CC3C2=O)cc1)C(=O)O)c1c(Cl)cccc1Cl` (some centres unmarked) [Example 46], 1.7 µM. With `O=C(N[C@@H](Cc1ccc(N2C(=O)[C@H]3CC[C@H](c4ccccc4)C[C@H]3C2=O)cc1)C(=O)O)c1c(Cl)cccc1Cl` [Example 47], the IC50 was found to be 2.1 µM. Turning to `O=C(N[C@@H](Cc1ccc(N2C(=O)CC3(CCCC3)CC2=O)cc1)C(=O)O)c1c(Cl)cccc1Cl` [Example 48], the IC50 worked out at 1.3 µM. Consider `CC1(C)[C@H]2CC[C@]1(C)C(=O)N(c1ccc(C[C@H](NC(=O)c3c(Cl)cccc3Cl)C(=O)O)cc1)C2=O` [Example 49], for which the IC50 stood at 2 µM. The same measure for `Cc1cccc2c1C(=O)N(c1ccc(C[C@H](NC(=O)c3c(Cl)cncc3Cl)C(=O)O)cc1)C2=O` [Example 59]: 0.073 µM; for `Nc1cccc2c1C(=O)N(c1ccc(C[C@H](NC(=O)c3c(Cl)cccc3Cl)C(=O)O)cc1)C2=O` [Example 71]: 0.41 µM; for `CCOc1cccc2c1C(=O)N(c1ccc(C[C@H](NC(=O)c3c(Cl)cccc3Cl)C(=O)O)cc1)C2=O` [Example 73]: 0.21 µM. Turning to `O=C(N[C@@H](Cc1ccc(N2C(=O)c3cccc(OCc4ccccc4)c3C2=O)cc1)C(=O)O)c1c(Cl)cccc1Cl` [Example 74], the IC50 was 1.2 µM.

Consider `CCCCOc1cccc2c1C(=O)N(c1ccc(C[C@H](NC(=O)c3c(Cl)cccc3Cl)C(=O)O)cc1)C2=O` [Example 75], for which the IC50 amounted to 0.79 µM. With `O=C(N[C@@H](Cc1ccc(N2C(=O)c3ccc(O)cc3C2=O)cc1)C(=O)O)c1c(Cl)cccc1Cl` [Example 77], the IC50 is 0.77 µM. With `COc1ccc2c(c1)C(=O)N(c1ccc(C[C@H](NC(=O)c3c(Cl)cccc3Cl)C(=O)O)cc1)C2=O` [Example 78] the figure was 0.52 µM. As for `CCOc1ccc2c(c1)C(=O)N(c1ccc(C[C@H](NC(=O)c3c(Cl)cccc3Cl)C(=O)O)cc1)C2=O` [Example 79], the IC50 is 0.57 µM. Consider `O=C(N[C@@H](Cc1ccc(N2C(=O)c3ccc(OCc4ccccc4)cc3C2=O)cc1)C(=O)O)c1c(Cl)cccc1Cl` [Example 80], for which the IC50 came out at 1.1 µM. For `O=C(N[C@@H](Cc1ccc(N2C(=O)Cc3ccccc3CC2=O)cc1)C(=O)O)c1c(Cl)cccc1Cl` [Example 82], the IC50 is 3.5 µM. Consider `Cc1cccc2c1C(=O)N(c1ccc(C[C@H](NC(=O)c3c(Cl)cc(-c4nnn[nH]4)cc3Cl)C(=O)O)cc1)C2=O` [Example 83, (2S)-2-(2,6-dichloro-4-tetrazolyl-benzoylamino)-3-[4-(4-methyl-1,3-dioxo-1,3-dihydroisoindole-2-yl)phenyl] Propionic Acid], for which the IC50 came to 0.0059 µM.

Take `Cc1cccc2c1C(=O)N(c1ccc(C[C@H](NC(=O)c3c(Cl)cc(NS(C)(=O)=O)cc3Cl)C(=O)O)cc1)C2=O` [Example 84]: the IC50 came to 0.015 µM.

For the compound `CC(=O)C1Cc2ccccc2C(=O)N1c1ccc(C[C@H](NC(=O)c2c(Cl)cccc2Cl)C(=O)O)cc1` (some centres unmarked) [Example 86], the IC50 was 0.53 µM.
